Patent US7393812B2, “Methylidene mevalonates and their use as herbicides” (Dow AgroSciences LLC, priority 2004, dated 2008)

Legend:
Format in all cases: in vivo
[1] = tested on: crabgrass (Digitaria sanguinalis, DIGSA); assay: Post-emergent evaluation; details: data gathered 15 days after treatment, probit analysis
Protocol: (§1) Seeds of the desired test plant species were planted in Grace-Sierra MetroMix® 306 planting mixture, which typically has a pH of 6.0 to 6.8 and an organic matter content of about 30 percent, in plastic pots with a surface area of 64 square centimeters. When required to ensure good germination and healthy plants, a fungicide treatment and/or other chemical or physical treatment was applied. The plants were grown for 7-21 days in a greenhouse with an approximate 15 hr photoperiod which was maintained at about 23-29° C. during the day and 22-28° C. during the night. Nutrients and water were added on a regular basis and supplemental lighting was provided with overhead metal halide 1000-Watt lamps as necessary. The plants were employed for testing when they reached the first or second true leaf stage.
(§2) A weighed amount, determined by the highest rate to be tested, of each test compound was placed in a 20 mL glass vial and was dissolved in 4 mL of a 97:3 v/v (volume/volume) mixture of acetone and dimethyl sulfoxide (DMSO) to obtain concentrated stock solutions. […] The concentrated stock solutions obtained were diluted with an aqueous mixture containing acetone, water, isopropyl alcohol, DMSO, Atplus 411F crop oil concentrate, and Triton X-155 surfactant in a 48.5:39:10:1.5:1.0:0.02 v/v ratio to obtain spray solutions of known concentration. The solutions containing the highest concentration to be tested were prepared by diluting 2 mL aliquots of the stock solution with 13 mL of the mixture and lower concentrations were prepared by serial dilution of the stock solution. Approximately 1.5 mL aliquots of each solution of known concentration were sprayed evenly onto each of the test plant pots using a DeVilbiss atomizer driven by compressed air pressure of 2 to 4 psi ([…]) to obtain thorough coverage of each plant. Control plants were sprayed in the same manner with the aqueous mixture. In this test an application rate of 1 ppm results in the application of approximately 1 g/Ha.
(§3) The treated plants and control plants were placed in a greenhouse as described above and watered by sub-irrigation to prevent wash-off of the test compounds. After 2 weeks the condition of the test plants as compared with that of the untreated plants was determined visually and scored on a scale of 0 to 100 percent where 0 corresponds to no injury and 100 corresponds to complete kill. Species abbreviations as described for Table I with the following additions: soybean (Glycine max, GLXMA), rape (Brassica napus, BRSNN), chickweed (Stellaria media, STEME), cocklebur (Xanthium strumarium XANST), lambsquarters (Chenopodium album, CHEAL), violet (Viola tricolor, VIOTR), bindweed (Polygonum convolvulus, POLCO), spurge (Euphorbia heterophylla, EPHHL), Canada thistle (Cirsium arvense, CIRAR), corn (Zea mays, ZEAMX), rice (Oryza sativa, ORYSA), wheat (Triticum aestivum, TRZAS), crabgrass (Digitaria sanguinalis, DIGSA), shattercane (Sorghum vulgare, SORVU) and yellow nutsedge (Cyperus esculentus, CYPES).
(§4) By applying the well-accepted probit analysis as described by J. Berkson in Journal of the American Statistical […], 48, 565 (1953) and by D. Finney in “Probit Analysis” Cambridge University Press (1952), similar data can be used to calculate GR80 values, which are defined as growth reduction factors that correspond to the effective dose of herbicide required to kill or control 80 percent of a target plant. Species abbreviations are as previously defined.

[2] = tested on: yellow nutsedge (Cyperus esculentus, CYPES); assay: Post-emergent evaluation; details: data gathered 15 days after treatment, probit analysis
Protocol: as §1, §2, §3, §4

[3] = tested on: morningglory (Ipomoea hederacea, IPOHE); assay: Post-emergent evaluation; details: data gathered 15 days after treatment, probit analysis
Protocol: as §1, §2
as §3, with “After 2 weeks the condition of the test plants as compared with that of the untreated plants was determined visually and scored on a scale of 0 to 100 percent where 0 corresponds to no injury and 100 corresponds to complete kill.” left out
as §4

[4] = tested on: barnyardgrass (Echinochloa crusgalli, ECHCG); assay: Post-emergent evaluation; details: for GR80: data gathered 15 days after treatment, probit analysis; for % growth reduction at the lowest rate tested: 15 days after treatment
Protocol: as §1, §2
as §3, with “After 2 weeks the condition of the test plants as compared with that of the untreated plants was determined visually and scored on a scale of 0 to 100 percent where 0 corresponds to no injury and 100 corresponds to complete kill.” left out
as §4

[5] = tested on: giant foxtail (Setaria faberi, SETFA); assay: Post-emergent evaluation; details: for GR80: data gathered 15 days after treatment, probit analysis; for % growth reduction at the lowest rate tested: 15 days after treatment
Protocol: as §1, §2
as §3, with “After 2 weeks the condition of the test plants as compared with that of the untreated plants was determined visually and scored on a scale of 0 to 100 percent where 0 corresponds to no injury and 100 corresponds to complete kill.” left out
as §4

[6] = tested on: shattercane (Sorghum vulgare, SORVU); assay: Post-emergent evaluation; details: for GR80: data gathered 15 days after treatment, probit analysis
Protocol: as §1, §2
as §3, with “After 2 weeks the condition of the test plants as compared with that of the untreated plants was determined visually and scored on a scale of 0 to 100 percent where 0 corresponds to no injury and 100 corresponds to complete kill.” left out
as §4

[7] = tested on: violet (Viola tricolor, VIOTR); assay: Post-emergent evaluation; details: data gathered 15 days after treatment, probit analysis
Protocol: as §1, §2
as §3, with “After 2 weeks the condition of the test plants as compared with that of the untreated plants was determined visually and scored on a scale of 0 to 100 percent where 0 corresponds to no injury and 100 corresponds to complete kill.” left out
as §4

[8] = tested on: chickweed (Stellaria media, STEME); assay: Post-emergent evaluation; details: data gathered 15 days after treatment, probit analysis
Protocol: as §1, §2
as §3, with “After 2 weeks the condition of the test plants as compared with that of the untreated plants was determined visually and scored on a scale of 0 to 100 percent where 0 corresponds to no injury and 100 corresponds to complete kill.” left out
as §4

[9] = tested on: velvetleaf (Abutilon theophrasti, ABUTH); assay: Post-emergent evaluation; details: data gathered 15 days after treatment, probit analysis
Protocol: as §1, §2
as §3, with “After 2 weeks the condition of the test plants as compared with that of the untreated plants was determined visually and scored on a scale of 0 to 100 percent where 0 corresponds to no injury and 100 corresponds to complete kill.” left out
as §4

test plant species = assay: Biological assays of the enantiomers (herbicidal activity); details: resolved enantiomers
Protocol: as §1, with “The plants were employed for testing when they reached the first or second true leaf stage.” left out
A weighed amount, determined by the highest rate to be tested, of each test compound was placed in a 20 mL glass vial and was dissolved in 4 mL of a 97:3 v/v (volume/volume) mixture of acetone and dimethyl sulfoxide (DMSO) to obtain concentrated stock solutions. […]
The treated plants and control plants were placed in a greenhouse as described above and watered by sub-irrigation to prevent wash-off of the test compounds. After 2 weeks the condition of the test plants as compared with that of the untreated plants was determined visually and scored on a scale of 0 to 100 percent where 0 corresponds to no injury and 100 corresponds to complete kill. […]

[10] = tested on: morningglory (Ipomoea hederacea, IPOHE); assay: Synergistic herbicidal activity, foliar track sprayer; details: nonanoic acid 1120 g ae/ha alone, 14 days, 1% crop oil concentrate
Protocol: (§5) Methylidene mevalonate alone and in combination with nonanoic acid was applied to the foliage of rapidly growing plant material utilizing a track sprayer calibrated to deliver an application volume of 187 L/ha. These treatments were applied to both broadleaf and grass weed species. All treatments contained 1% crop oil concentrate. Assessment of herbicidal activity was performed visually relative to untreated controls after 14 days incubation in the greenhouse. Species abbreviations are as previously defined.

[11] = tested on: crabgrass (Digitaria sanguinalis, DIGSA); assay: as above; details: nonanoic acid 1120 g ae/ha alone, 14 days, 1% crop oil concentrate
Protocol: as §5

[12] = tested on: lambsquarters (Chenopodium album, CHEAL); assay: as above; details: nonanoic acid 1120 g ae/ha alone, 14 days, 1% crop oil concentrate
Protocol: as §5

[13] = tested on: wild oats (Avena fatua, AVEFA); assay: as above; details: nonanoic acid 1120 g ae/ha alone, 14 days, 1% crop oil concentrate
Protocol: as §5

SMILES | GR80 [1] | GR80 [2] | GR80 [3] | GR80 [4] | % growth reduction at the lowest rate tested [4] | GR80 [5] | % growth reduction at the lowest rate tested [5] | GR80 [6] | GR80 [7] | GR80 [8] | GR80 [9] | GR80 ([1]; Potassium Salt) | GR80 ([2]; Potassium Salt) | GR80 ([3]; Potassium Salt) | GR80 ([4]; Potassium Salt) | GR80 ([5]; Potassium Salt) | GR80 ([6]; Potassium Salt) | GR80 ([7]; Potassium Salt) | GR80 ([8]; Potassium Salt) | GR80 ([9]; Potassium Salt) | further results
C=C(CO)C(C)(O)CC(=O)[O-].[K+] (racemic) | 1003 g ae/ha | 603 g ae/ha | 375 g ae/ha | < 375 g ae/ha | 98% | < 375 g ae/ha | 95% | 400 g ae/ha | 1768 g ae/ha | 2089 g ae/ha | 720 g ae/ha |  |  |  |  |  |  |  |  |  | 
C=C(CO)C(C)(O)CC(=O)[O-].[Na+] (racemic) | 774 g ae/ha | 375 g ae/ha | 416 g ae/ha | < 375 g ae/ha | 98% | < 375 g ae/ha | 97% | < 375 g ae/ha | 2290 g ae/ha | 1358 g ae/ha | 965 g ae/ha |  |  |  |  |  |  |  |  |  | % growth reduction at the lowest rate tested ([6]; lowest rate tested, 15 days after treatment): 93%
C=C(CO)C(C)(O)CC(=O)[O-].[K+] (single isomer, unassigned; (+)) [(+)-4-Methylidene Mevalonate, Potassium Salt] |  |  |  |  |  |  |  |  |  |  |  | 916 g ae/ha | 429 g ae/ha | 341 g ae/ha | 351 g ae/ha | 183 g ae/ha | 490 g ae/ha | 1865 g ae/ha | 1349 g ae/ha | 1135 g ae/ha | herbicidal activity (test plant species): herbicidal activity was manifested
C=C(CO)C(C)(O)CC(=O)[O-].[K+] (single isomer, unassigned; (-)) [(−)-4-Methylidene Mevalonate, Potassium Salt] |  |  |  |  |  |  |  |  |  |  |  | >1500 g ae/ha | >1500 g ae/ha | >1500 g ae/ha | >1500 g ae/ha | >1500 g ae/ha | >1500 g ae/ha | >1500 g ae/ha | >1500 g ae/ha | >1500 g ae/ha | 
C=C1COC(=O)CC1(C)O (centres unmarked) [Methylidene Mevalonolactone] | 834 g ae/ha | 834 g ae/ha | 725 g ae/ha | < 375 g ae/ha | 100% | 430 g ae/ha |  | 615 g ae/ha | 2473 g ae/ha | 3032 g ae/ha | 2266 g ae/ha |  |  |  |  |  |  |  |  |  | 
CCCCCCCCC(=O)O [Nonanoic Acid, nonanoic acid, reference compound] |  |  |  |  |  |  |  |  |  |  |  |  |  |  |  |  |  |  |  |  | Actual Injury % growth reduction [10]: 0%; Actual Injury % growth reduction [11]: 0%; Actual Injury % growth reduction [12]: 0%; Actual Injury % growth reduction [13]: 0%
